The values below come from patent publication US20090054491A1, “Use” (AstraZeneca AB, priority 2005, published 2009).

The subject of this test is Female C57Bl6 mice. The experiment in a line: Pharmacodynamic effect in mouse (intake of bland and palatable paste after fasting, body weight change). The test is classed as in vivo. The protocol: Female C57Bl6 mice (19-21 g) are singly housed for 7-days with ad libitum access to a “bland-paste” made from normal laboratory chow (R-3 Lactanin, Vadstena, Sweden) or to a “palatable-paste” of similar consistency containing oatmeal, butter, sugar, cocoa powder, cocoa butter and peanut butter. The day before the experimental day, food is removed for 12 hours. O the experiment day, animals are weighed and compound or vehicle is administered. Animals are returned to their home cages and given access to weighed amounts of both bland and palatable pastes. This food is then re-weighed 2, and optionally 4 and 6 hours later, and consumption of each food type calculated by the difference from initial food weight. Animals are further weighed at 24 hours after administration, and change in body weight over the treatment period is calculated.

Consider `COCc1cc(C#N)cc(-c2nc(-c3ccc(F)cn3)no2)c1` [3-[3-(5-fluoropyridin-2-yl)-1,2,4-oxadiazol-5-yl]-5-(methoxymethyl)benzonitrile], for which, under “compared to vehicle treated animals, FIG. 2”, the “body weight recovery after fasting” value is given as “slower body weight recovery”. In addition, the “effect on normal laboratory chow (intake)” value (measured 2 hours after treatment, bland paste, fasted mice, FIG. 1) is reported as “no effect”. Besides, the intake of sweets entry (measured 2 hours after treatment, palatable paste, fasted mice, FIG. 1) is recorded as “decreased intake of sweets measured 2 hours after treatment in a dose-related manner”.
